According to ChEMBL document CHEMBL3390836, “Mannich- and LedererManasse-based analogues of the natural product S-(+)-curcuphenol as cancer proliferation and migration inhibitors” (Medchemcomm, 2012):
pIC50: −log10 of the molar value.

Assays:
BT-549 = experiment: Cytotoxicity against human BT549 cells assessed as cell growth at 10 uM after 48 hrs by SRB assay relative to control; assay type: functional; details: BT-549, 48 h, read-out: Activity
[1] = Cytotoxicity against human Hs 578T cells assessed as cell growth at 10 uM after 48 hrs by SRB assay relative to control; assay type: functional; details: read-out: Activity
[2] = Cytotoxicity against human PC3 cells assessed as cell growth at 10 uM after 48 hrs by SRB assay relative to control; assay type: functional; details: PC-3, 48 h, read-out: Activity
TK-10 = experiment: Cytotoxicity against human TK10 cells assessed as cell growth at 10 uM after 48 hrs by SRB assay relative to control; assay type: functional; details: TK-10, 48 h, read-out: Activity
SN12C = experiment: Cytotoxicity against human SN12C cells assessed as cell growth at 10 uM after 48 hrs by SRB assay relative to control; assay type: functional; details: read-out: Activity
CAKI-1 = experiment: Cytotoxicity against human Caki1 cells assessed as cell growth at 10 uM after 48 hrs by SRB assay relative to control; assay type: functional; details: CAKI-1, 48 h, read-out: Activity
[3] = Cytotoxicity against human OVCAR8 cells assessed as cell growth at 10 uM after 48 hrs by SRB assay relative to control; assay type: functional; details: OVCAR-8, 48 h, read-out: Activity
[4] = Cytotoxicity against human OVCAR5 cells assessed as cell growth at 10 uM after 48 hrs by SRB assay relative to control; assay type: functional; details: OVCAR-5, 48 h, read-out: Activity
MDA-MB-231 [5] = experiment: Cytotoxicity against human MDA-MB-231 cells assessed as growth inhibition after 24 hrs by MTT assay; assay type: cell-based; details: MDA-MB-231, 24 h
SR = experiment: Cytotoxicity against human SR cells assessed as cell growth at 10 uM after 48 hrs by SRB assay relative to control; assay type: functional; details: read-out: Activity
DU-145 = experiment: Cytotoxicity against human DU145 cells assessed as cell growth at 10 uM after 48 hrs by SRB assay relative to control; assay type: functional; details: DU-145, 48 h, read-out: Activity
SF-268 = experiment: Cytotoxicity against human SF268 cells assessed as cell growth at 10 uM after 48 hrs by SRB assay relative to control; assay type: functional; details: SF-268, 48 h, read-out: Activity
[6] = Cytotoxicity against human OVCAR4 cells assessed as cell growth at 10 uM after 48 hrs by SRB assay relative to control; assay type: functional; details: OVCAR-4, 48 h, read-out: Activity
[7] = Cytotoxicity against human UACC257 cells assessed as cell growth at 10 uM after 48 hrs by SRB assay relative to control; assay type: functional; details: UACC-257, 48 h, read-out: Activity
MDA-MB-435 = experiment: Cytotoxicity against human MDA-MB-435 cells assessed as cell growth at 10 uM after 48 hrs by SRB assay relative to control; assay type: functional; details: MDA-MB-435, 48 h, read-out: Activity
Malme-3M = experiment: Cytotoxicity against human MALME-3M cells assessed as cell growth at 10 uM after 48 hrs by SRB assay relative to control; assay type: functional; details: read-out: Activity
U-251 = experiment: Cytotoxicity against human U251 cells assessed as cell growth at 10 uM after 48 hrs by SRB assay relative to control; assay type: functional; details: U-251, 48 h, read-out: Activity
SNB-19 = experiment: Cytotoxicity against human SNB19 cells assessed as cell growth at 10 uM after 48 hrs by SRB assay relative to control; assay type: functional; details: SNB-19, 48 h, read-out: Activity
[8] = Cytotoxicity against human HCT15 cells assessed as cell growth at 10 uM after 48 hrs by SRB assay relative to control; assay type: functional; details: HCT-15, 48 h, read-out: Activity
HCC 2998 = experiment: Cytotoxicity against human HCC2998 cells assessed as cell growth at 10 uM after 48 hrs by SRB assay relative to control; assay type: functional; details: HCC 2998, 48 h, read-out: Activity
NCI-H522 = experiment: Cytotoxicity against human NCI-H522 cells assessed as cell growth at 10 uM after 48 hrs by SRB assay relative to control; assay type: functional; details: NCI-H522, 48 h, read-out: Activity
NCI-H322M = experiment: Cytotoxicity against human NCI-H322M cells assessed as cell growth at 10 uM after 48 hrs by SRB assay relative to control; assay type: functional; details: read-out: Activity
NCI-H460 = experiment: Cytotoxicity against human NCI-H460 cells assessed as cell growth at 10 uM after 48 hrs by SRB assay relative to control; assay type: functional; details: NCI-H460, 48 h, read-out: Activity
HOP-92 = experiment: Cytotoxicity against human HOP92 cells assessed as cell growth at 10 uM after 48 hrs by SRB assay relative to control; assay type: functional; details: HOP-92, 48 h, read-out: Activity
HOP-62 = experiment: Cytotoxicity against human HOP62 cells assessed as cell growth at 10 uM after 48 hrs by SRB assay relative to control; assay type: functional; details: HOP-62, 48 h, read-out: Activity
RPMI-8226 = experiment: Cytotoxicity against human RPMI8226 cells assessed as cell growth at 10 uM after 48 hrs by SRB assay relative to control; assay type: functional; details: RPMI-8226, 48 h, read-out: Activity
K562 = experiment: Cytotoxicity against human K562 cells assessed as cell growth at 10 uM after 48 hrs by SRB assay relative to control; assay type: functional; details: K562, 48 h, read-out: Activity
MDA-MB-231 [9] = experiment: Antimigratory activity against human MDA-MB-231 cells after 24 hrs by wound-healing assay; assay type: functional, cell-based; details: MDA-MB-231, 24 h

Compound	growth at 10 µM [1] [%]	growth at 10 µM [2] [%]	growth at 10 µM (TK-10) [%]	growth at 10 µM (SN12C) [%]	growth at 10 µM (CAKI-1) [%]	growth at 10 µM [3] [%]	growth at 10 µM [4] [%]	pIC50 (MDA-MB-231 [5])	growth at 10 µM [6] [%]	growth at 10 µM [7] [%]	growth at 10 µM (MDA-MB-435) [%]	growth at 10 µM (U-251) [%]	growth at 10 µM (SNB-19) [%]	growth at 10 µM [8] [%]	growth at 10 µM (HCC 2998) [%]	growth at 10 µM (NCI-H522) [%]	growth at 10 µM (NCI-H322M) [%]	growth at 10 µM (NCI-H460) [%]	growth at 10 µM (HOP-62) [%]	growth at 10 µM (RPMI-8226) [%]	also measured
CC(C)=CCC[C@H](C)c1ccc(C)c2c1OCN(CCCCCO)C2	81.2	68.6	73.7	78.6	78.1	90.1	87.4	< 4.70	95.5	78.4	97.1	83.8	88.8	94	73.5	-1.75	102	81.1	92.5	76.7	growth at 10 µM (BT-549): 72.1%; growth at 10 µM (SR): 66.6%; growth at 10 µM (DU-145): 109%; growth at 10 µM (SF-268): 97.5%; growth at 10 µM (Malme-3M): 93.7%; growth at 10 µM (HOP-92): 27.7%; growth at 10 µM (K562): 31.1%; pIC50 (MDA-MB-231 [9]): 5.00
COc1ccc(CCNCc2c(C)ccc([C@@H](C)CCC=C(C)C)c2O)cc1OC	89.6	71	90.1	87.1	58.4	80.4	96.6	< 4.70	71	78.7	97.8	76.7	90.8	92.2	15.7	75	99	83.1	89	55.8	growth at 10 µM (SR): 53.4%; growth at 10 µM (DU-145): 83.4%; growth at 10 µM (SF-268): 90.7%; growth at 10 µM (K562): 44.5%; pIC50 (MDA-MB-231 [9]): < 4.70
CC(C)=CCC[C@H](C)c1ccc(C)c(CNCCCCCO)c1O	88.4	79.5	92.2	98	75.2	98	99.4	< 4.70	72.9	93.2	95	82.9	94.6	86.1	73	89.2	104	94.5	88.4	85.3	growth at 10 µM (BT-549): 108%; growth at 10 µM (SR): 84%; growth at 10 µM (DU-145): 108%; growth at 10 µM (SF-268): 87.8%; growth at 10 µM (Malme-3M): 106%; growth at 10 µM (K562): 60.2%; pIC50 (MDA-MB-231 [9]): < 4.70
CC(C)=CCC[C@H](C)c1ccc(C)c2c1OCN(CCCCC(=O)O)C2	104	92.3	86.1	97.6	81	88.8	90.8	< 4.70	105	89.5	99.4	106	92.7	92.3	102	44.8	112	105	94.6	92.3	growth at 10 µM (SR): 105%; growth at 10 µM (DU-145): 118%; growth at 10 µM (SF-268): 100%; growth at 10 µM (Malme-3M): 126%; growth at 10 µM (HOP-92): 83.7%; growth at 10 µM (K562): 87.5%; pIC50 (MDA-MB-231 [9]): 4.52
CC(C)=CCC[C@H](C)c1ccc(C)c(CNCCCCC(=O)O)c1O	102	98	105	102	90.6	94.1	102	< 4.70	93.3	101	96.1	98.1	103	105	101	95.4	111	105	106	95.1	growth at 10 µM (BT-549): 111%; growth at 10 µM (SR): 85%; growth at 10 µM (DU-145): 110%; growth at 10 µM (SF-268): 105%; growth at 10 µM (K562): 96.1%; pIC50 (MDA-MB-231 [9]): < 4.70
CC(C)=CCC[C@H](C)c1ccc(C)c(CO)c1O	104	89.1	103	91.3	112	92.1	110	< 4.70	90.7	91.9	108	98.8	101	109	102	87.1	109	108	99.8	88.8	growth at 10 µM (BT-549): 91.8%; growth at 10 µM (Malme-3M): 110%; growth at 10 µM (HOP-92): 65.2%; growth at 10 µM (K562): 101%; pIC50 (MDA-MB-231 [9]): 4.91
CC(C)=CCC[C@H](C)c1ccc(C)c2c1OCN(CCO)C2	75.6	76.9	88.4	79.6	91.6	86.3	83.7	< 4.70	79	92.3	101	85.1	57.9	105	84.4	78.1	104	96	80.4	83.2	growth at 10 µM (BT-549): 95.8%; growth at 10 µM (Malme-3M): 89.5%; growth at 10 µM (HOP-92): 4.21%; growth at 10 µM (K562): 77.7%; pIC50 (MDA-MB-231 [9]): 4.95
CC(C)=CCC[C@H](C)c1ccc(C)c(CNCCO)c1O	83.1	88.1	81	91.5	74.6	89.6	87.6	< 4.70	108	81.7	95.8	87.2	88.1	98.6	76.9	81.4	100	102	81	86.9	growth at 10 µM (SR): 75.7%; growth at 10 µM (DU-145): 98.3%; growth at 10 µM (SF-268): 97.8%; growth at 10 µM (K562): 76.8%; pIC50 (MDA-MB-231 [9]): < 4.70
CC(C)=CCC[C@H](C)c1ccc(C)cc1O	114	80	110	105	107	108	99	< 4.70	100	107	100	103	98.5	109	99.5	101	113	107	102	99.9	growth at 10 µM (BT-549): 114%; growth at 10 µM (Malme-3M): 115%; growth at 10 µM (HOP-92): 85%; growth at 10 µM (K562): 93%; pIC50 (MDA-MB-231 [9]): 4.43
